Assay results taken from EPA's ToxValDB 9.5 (doi:10.2903/j.efsa.2018.5288).
Converted amounts (≈) assume the structure as drawn.

Legend:
Anas platyrhynchos = settings: short-term; mortality
Lepomis macrochirus = settings: acute; duration: 96 hours; mortality
Apis mellifera = settings: acute, mortality
Mus musculus = settings: chronic; duration: 18 months; oral; diet; neurology

CCCCC(CC)COC(=O)[C@@H](C)Oc1ccc(Cl)cc1Cl (stereo not given in full) [Dichlorprop-P-2-ethylhexyl]
LD50 (Rattus norvegicus; acute, mortality): 824 mg/kg-day | NOAEL (Rattus norvegicus; developmental, development): 80 mg/kg-day | NOAEL (Rattus norvegicus; reproduction developmental, body weight): 20 mg/kg-day | LD50 (Colinus virginianus; acute, oral, mortality): 1010 mg/kg-day | NOEL (Colinus virginianus; reproduction developmental): 101 mg/kg-day | LD50 (Anas platyrhynchos): > 928 mg/kg-day | LC50 (Lepomis macrochirus): 7.9 µg/mL (≈ 22.7 µM) | LD50 (Apis mellifera; dermal): > 180 µg/piece | LD50 (Apis mellifera; oral, unspecified): > 178 µg/piece | NOAEL (Mus musculus): 6 mg/kg-day
